Results reported in ChEMBL document CHEMBL1944503, “Synthesis and biological evaluation of conjugates of deoxypodophyllotoxin and 5-FU as inducer of caspase-3 and -7” (Eur J Med Chem, 2012).
Active and inactive are the calls of the source. The rule behind the calls is not given here.

Assays:
HL-60 = assay: Cytotoxicity against human HL60 cells after 48 hrs by CCK-8 assay; type: functional, cell-based; conditions: HL-60, 48 h
A549 [1] = assay: cells; conditions: Homo sapiens, A549, 48 h
Description: Cytotoxicity against human A549 cells after 48 hrs by MTT assay

SiHa = assay: Cytotoxicity against human SiHa cells after 48 hrs by MTT assay; type: functional, cell-based
HeLa = assay: Cytotoxicity against human HeLa cells after 48 hrs by CCK-8 assay; type: functional, cell-based
A549 [2] = assay: Induction of apoptosis in human A549 cells assessed as cell detachment at 0.5 uM after 24 hrs by Hoechst 33258 staining based fluorescence microscopy; type: functional
A549 [3] = assay: Induction of apoptosis in human A549 cells assessed as nuclear condensation at 0.5 uM after 24 hrs by Hoechst 33258 staining based fluorescence microscopy; type: functional, cell-based
A549 [4] = assay: Induction of apoptosis in human A549 cells assessed as nuclear fragmentation at 0.5 uM after 24 hrs by Hoechst 33258 staining based fluorescence microscopy; type: functional, cell-based
A549 [5] = assay: Induction of apoptosis in human A549 cells assessed as cell shrinkage at 0.5 uM after 24 hrs by Hoechst 33258 staining based fluorescence microscopy; type: functional
A549 [6] = assay: Induction of apoptosis in human A549 cells assessed as membrane blebbing at 0.5 uM after 24 hrs by Hoechst 33258 staining based fluorescence microscopy; type: functional, cell-based
A549 [7] = assay: Cell cycle arrest in human A549 cells assessed as accumulation at G2/M phase at 0.5 uM by propidium iodide staining based flow cytometry analysis; type: functional; conditions: TDE = time-dependent effect
A549 [8] = assay: Cell cycle arrest in human A549 cells assessed as accumulation at G1 phase at 0.5 uM after 24 hrs by propidium iodide staining based flow cytometry analysis (reference value: 54.1%); type: functional
A549 [9] = assay: Cell cycle arrest in human A549 cells assessed as accumulation at G2/M phase at 0.5 uM after 24 hrs by propidium iodide staining based flow cytometry analysis (reference value: 15.6%); type: functional
A549 [10] = assay: Cell cycle arrest in human A549 cells assessed as accumulation at S phase at 0.5 uM after 24 hrs by propidium iodide staining based flow cytometry analysis (reference value: 30.3%); type: functional
A549 [11] = assay: Induction of apoptosis in human A549 cells assessed as increase in caspase-3 cleavage at 0.5 uM by Western blot analysis; type: functional, cell-based; conditions: TDE = time-dependent effect
A549 [12] = assay: Cell cycle arrest in human A549 cells assessed as accumulation at G2/M phase at 0.5 uM after 12 hrs by propidium iodide staining based flow cytometry analysis (reference value: 15.6%); type: functional
A549 [13] = assay: Cell cycle arrest in human A549 cells assessed as accumulation at G1 phase at 0.5 uM by propidium iodide staining based flow cytometry analysis; type: functional; conditions: TDE = time-dependent effect
A549 [14] = assay: Cell cycle arrest in human A549 cells assessed as accumulation at S phase at 0.5 uM after 12 hrs by propidium iodide staining based flow cytometry analysis (reference value: 30.3%); type: functional
A549 [15] = assay: Cell cycle arrest in human A549 cells assessed as accumulation at G1 phase at 0.5 uM after 12 hrs by propidium iodide staining based flow cytometry analysis (reference value: 54.1%); type: functional
A549 [16] = assay: Induction of apoptosis in human A549 cells assessed as increase in caspase-7 cleavage at 0.5 uM by Western blot analysis; type: functional, cell-based; conditions: TDE = time-dependent effect

Row | Compound | IC50 (HL-60) [nM] | IC50 (A549 [1]) [nM] | IC50 (SiHa) [nM] | IC50 (HeLa) [nM] | also measured
1 | COc1cc([C@@H]2c3cc4c(cc3C[C@H]3COC(=O)[C@@H]32)OCO4)cc(OC)c1OC(=O)[C@H](C)NC(=O)Cn1cc(F)c(=O)[nH]c1=O | 190 | 1400 | 600 | 200 | 
2 | COc1cc([C@@H]2c3cc4c(cc3C[C@H]3COC(=O)[C@@H]32)OCO4)cc(OC)c1OC(=O)Cn1cc(F)c(=O)[nH]c1=O | 35 | 660 | 110 | 180 | 
3 | COc1cc([C@@H]2c3cc4c(cc3C[C@H]3COC(=O)[C@@H]32)OCO4)cc(OC)c1OC(=O)[C@H](CC(C)C)NC(=O)Cn1cc(F)c(=O)[nH]c1=O | 63 | 1070 | 350 | 430 | 
4 | COc1cc([C@@H]2c3cc4c(cc3C[C@H]3COC(=O)[C@@H]32)OCO4)cc(OC)c1O [4'-DEMETHYLDEOXYPODOPHYLLOTOXIN] |  |  | 43000 | 53300 | 
5 | COc1cc([C@@H]2c3cc4c(cc3[C@@H](O[C@@H]3O[C@@H]5CO[C@@H](C)O[C@H]5[C@H](O)[C@H]3O)[C@H]3COC(=O)[C@H]23)OCO4)cc(OC)c1O [ETOPOSIDE] |  |  | 2760 | 40400 | 
6 | COc1cc([C@@H]2c3cc4c(cc3[C@H](O)[C@H]3COC(=O)[C@H]23)OCO4)cc(OC)c1OC |  |  |  |  | Activity (A549 [2]): Active; Activity (A549 [3]): Active; Activity (A549 [4]): Active; Activity (A549 [5]): Active; Activity (A549 [6]): Active
7 | O=c1[nH]cc(F)c(=O)[nH]1 [FLUOROURACIL] | 68300 | 54800 | 218000 | 82200 | 
8 | COc1cc([C@@H]2c3cc4c(cc3C[C@H]3COC(=O)[C@@H]32)OCO4)cc(OC)c1OC(=O)[C@H](Cc1ccccc1)NC(=O)Cn1cc(F)c(=O)[nH]c1=O | 23 | 560 | 760 | 830 | Activity (A549 [2]): Active; Activity (A549 [3]): Active; Activity (A549 [7]): tde; Activity (A549 [8]): 3.94%; Activity (A549 [4]): Active; Activity (A549 [5]): Active; Activity (A549 [9]): 64.8%; Activity (A549 [10]): 31.3%; Activity (A549 [11]): tde; Activity (A549 [12]): 52.6%; Activity (A549 [6]): Active; Activity (A549 [13]): tde; Activity (A549 [14]): 42.6%; Activity (A549 [15]): 4.84%; Activity (A549 [16]): tde
9 | COc1cc([C@@H]2c3cc4c(cc3C[C@H]3COC(=O)[C@@H]32)OCO4)cc(OC)c1OC(=O)[C@H](CCSC)NC(=O)Cn1cc(F)c(=O)[nH]c1=O | 230 | 830 | 360 | 780 | 
10 | COc1cc([C@@H]2c3cc4c(cc3C[C@H]3COC(=O)[C@@H]32)OCO4)cc(OC)c1OC(=O)[C@@H](NC(=O)Cn1cc(F)c(=O)[nH]c1=O)C(C)C | 140 | 360 | 1650 | 1230 | 
11 | COc1cc([C@@H]2c3cc4c(cc3C[C@H]3COC(=O)[C@@H]32)OCO4)cc(OC)c1OC(=O)[C@@H](CCSC)NC(=O)Cn1cc(F)c(=O)[nH]c1=O | 940 | 2600 | 1510 | 1970 | 
12 | COc1cc([C@@H]2c3cc4c(cc3C[C@H]3COC(=O)[C@@H]32)OCO4)cc(OC)c1OC [DESOXYPODOPHYLLOTOXIN] |  |  | 1980 | 6010 | 
